Data: article PMC10096064, “Naphth[1,2-d]imidazoles Bioactive from β-Lapachone: Fluorescent Probes and Cytotoxic Agents to Cancer Cells” (Molecules, 2023)
Entries after “also recorded” stand apart in the source; their conditions may differ. Read-outs that look alike come from different tables or passages of the source. Marks after values point to notes of the source that are not given here.

What was measured:
HCT-116 = assay: MTT cytotoxicity assay, human colorectal carcinoma HCT-116; assay type: cell-based; settings: for IC50: Homo sapiens, HCT-116, 72 h exposure, MTT, 95% confidence interval in brackets; for SI HCT-116 (selectivity index): ratio IC50 L929 / IC50 HCT-116
Description: (§1) The cytotoxic activity of the naphth[1,2-d]imidazoles IM1–IM7 was assessed through colorimetric MTT assay. The ability of these compounds to inhibit cell growth against human glioblastoma (SNB-19), human colorectal carcinoma (HCT-116), and human promyelocytic leukemia (HL-60) cell lines was evaluated. The IC50 was determined for those compounds, returning a percentage inhibition of cell growth above 75% in at least two tested cell lines. […] Doxorubicin was used as the positive control, and cytotoxic activities were expressed as IC50 for all the naphth[1,2-d]imidazoles in Table 2.
(§2) Brain tumor (SNB-19), human colorectal carcinoma (HCT-116), and human promyelocytic leukemia (HL-60) cells were obtained from the National Cancer Institute (NCI) (Bethesda, MD, USA). The L929 cells (mouse fibroblast L cells NCTC clone 929) were purchased from the American Type Culture Collection (Manassas, VA, USA). The cells were grown on RPMI 1640 medium supplemented with 10% fetal bovine serum and 1% antibiotics (penicillin/streptomycin) at 37 °C with 5% CO2.
(§3) Cytotoxic potential of the naphth[1,2-d]imidazoles IM1–IM7 was assessed after 72 h of exposure to the tumor cell lines of human SNB-19, HCT-116, HL-60, and normal cell line L929. Cells were plated in 96-well plates (0.7 × 10^5 cells/well for SNB-19, 0.3 × 10^6 cells/well for HCT-116, and 0.3 × 10^6 cells/well for HL-60). Compounds were dissolved with DMSO at concentrations in the 0.078–10 μg.mL^−1 range. Doxorubicin (0.001–1.10 μM) was used as the positive control, and negative control groups received the same amount of vehicle (DMSO). The cell viability was determined by the reduction of the yellow dye 3-(4,5-dimethyl-2-thiazol)-2,5-diphenyl-2H-tetrazolium bromide (MTT) to a blue formazan product. At the end of the incubation time (69 h), the plates were centrifuged, and the medium was replaced with fresh medium (200 μL) containing 0.5 mg/mL of MTT. Three hours later, the MTT formazan product was dissolved in DMSO (150 μL), and the absorbance was measured using a multi-plate reader (Spectra Count, Packard, ON, Canada). The drug effect was quantified as the percentage of control absorbance of the reduced dye at 550 nm. All experiments were performed in three independent assays, and the half maximal inhibitory concentration (IC50) and their 95% confidence intervals were achieved by nonlinear regression.

SNB-19 = assay: MTT cytotoxicity assay, human glioblastoma SNB-19; assay type: cell-based; settings: for IC50: Homo sapiens, SNB-19, 72 h exposure, MTT, 95% confidence interval in brackets; for SI SNB-19 (selectivity index): ratio IC50 L929 / IC50 SNB-19
Description: as §1, §2, §3

HL-60 = assay: MTT cytotoxicity assay, human promyelocytic leukemia HL-60; assay type: cell-based; settings: for IC50: Homo sapiens, HL-60, 72 h exposure, MTT, 95% confidence interval in brackets; for SI HL-60 (selectivity index): ratio IC50 L929 / IC50 HL-60
Description: as §1, §2, §3

L929 = assay: MTT cytotoxicity assay, nontumor murine fibroblast L929; assay type: cell-based; settings: Mus musculus, 72 h exposure
Description: as §1, §2, §3

[1] = UV-vis absorption spectra and molar absorptivity coefficient; assay type: physicochemical; settings: 20 μM
Description: A stock solution in dichloromethane (CH2Cl2) of each compound was prepared at a concentration of 4000 µM. From the stock solution, solutions were prepared at a concentration of 20 µM of each compound in four different solvents: hexane, CH2Cl2, dimethyl sulfoxide (DMSO), and methanol (CH3OH). Then, measurement in the range of 190 to 800 nm was performed, with the wavelengths of maximum absorption (λmax) of the compounds in the different solvents shown in Table S1 and Figure S8.
The molar absorptivity coefficient (εAbs) was determined using an equation applied by Lambert–Beer (εAbs = A/LxC, where A—maximum absorbance; L—the optical path of the cuvette used (1 cm); and C—concentration of the analyzed sample in M).

[2] = Fluorescence emission spectrum and Stokes shift; assay type: physicochemical; settings: for ΔST (Stokes shift): difference between absorption and emission wavelengths, solvent per compound as in Table 1; for fluorescence emission intensity / λemis (emission wavelength): excitation at 345 nm, 20 μM; for λemis (emission wavelength): solvent per compound: IM1, IM3, IM4, IM5 CH2Cl2, IM2 DMSO, IM6 CH3OH, IM7 hexane, DAPI H2O
Description: The stock solutions were diluted to a concentration of 20 µM, and readings used the excitation wavelength of 345 nm for all compounds. […]

[3] = set-up: method as in PMID 25995830, PMID 20460521; settings: drawback limiting clinical applications; cited from earlier work
[4] = cited from earlier work
[5] = solvent per compound: IM1, IM3, IM4, IM5 CH2Cl2, IM2 DMSO, IM6 CH3OH, IM7 hexane

| Compound | εAbs (molar absorptivity coefficient) [1] [M⁻¹ cm⁻¹] | εAbs (molar absorptivity coefficient) [1, 5] | λmax [1, 5] [nm] | ΔST (Stokes shift) [2] [nm] | fluorescence emission intensity [2] | λemis (emission wavelength) [2] [nm] | melting point [°C] | IC50 (HCT-116) [µM] | SI HCT-116 (selectivity index) (HCT-116) | IC50 (SNB-19) [µM] | SI SNB-19 (selectivity index) (SNB-19) | IC50 (HL-60) [µM] | SI HL-60 (selectivity index) (HL-60) | IC50 (L929) [µM] | water solubility [3] | cell growth inhibition / cytotoxicity (in words) (HCT-116; HCT-116, MTT, IC50 not calculated) | cell growth inhibition / cytotoxicity (in words) (SNB-19; SNB-19, MTT, IC50 not calculated) | cell growth inhibition / cytotoxicity (in words) (HL-60; HL-60, MTT, IC50 not calculated) | λmax ([4]; H2O, ref Farahat et al. (2017) [32]) | λabs ([4]; general characteristic of DAPI stated in text, ref not given) [nm] |
| --- | --- | --- | --- | --- | --- | --- | --- | --- | --- | --- | --- | --- | --- | --- | --- | --- | --- | --- | --- | --- |
| COc1cccc2c1C(=O)c1c(O)c3c(c(O)c1C2=O)C[C@@](O)(C(=O)CO)C[C@@H]3O[C@H]1C[C@H](N)[C@H](O)[C@H](C)O1 [Doxorubicin, reference compound] |  |  |  |  |  |  |  | 0.2 | 15.80 | 2.21 | 1.43 | 0.04 | 79.00 | 3.16 |  |  |  |  |  |  |
| CC1(C)CCC2=C(O1)c1ccccc1C(=O)C2=O [β-lapachone, β-Lapachone] |  |  |  |  |  |  |  |  |  |  |  |  |  |  | low |  |  |  |  |  |
| N=C(N)c1ccc(-c2cc3ccc(C(=N)N)cc3[nH]2)cc1 [DAPI, 4′,6-diamidino-2-phenylindole, reference compound] |  |  |  |  | 1.13 × 10^5 au | 452 |  |  |  |  |  |  |  |  |  |  |  |  | 343 ^d nm | 340 |

Further lines, with some results ahead:

| εAbs (molar absorptivity coefficient) [1] [M⁻¹ cm⁻¹] | εAbs (molar absorptivity coefficient) [1, 5] | λmax [1, 5] [nm] | ΔST (Stokes shift) [2] [nm] | fluorescence emission intensity [2] | λemis (emission wavelength) [2] [nm] | melting point [°C] | Compound | IC50 (HCT-116) [µM] | SI HCT-116 (selectivity index) (HCT-116) | IC50 (SNB-19) [µM] | SI SNB-19 (selectivity index) (SNB-19) | IC50 (HL-60) [µM] | SI HL-60 (selectivity index) (HL-60) | IC50 (L929) [µM] | water solubility [3] | cell growth inhibition / cytotoxicity (in words) (HCT-116; HCT-116, MTT, IC50 not calculated) | cell growth inhibition / cytotoxicity (in words) (SNB-19; SNB-19, MTT, IC50 not calculated) | cell growth inhibition / cytotoxicity (in words) (HL-60; HL-60, MTT, IC50 not calculated) | λmax ([4]; H2O, ref Farahat et al. (2017) [32]) | λabs ([4]; general characteristic of DAPI stated in text, ref not given) [nm] |
| --- | --- | --- | --- | --- | --- | --- | --- | --- | --- | --- | --- | --- | --- | --- | --- | --- | --- | --- | --- | --- |
| 14800 | 1.48 10^4 M^−1cm^−1 | 344 | 49 | 1.36 × 10^6 au | 393 |  | CC1(C)CCc2c(c3ccccc3c3nc(-c4ccc(O)cc4)[nH]c23)O1 [IM4, 4,5-dihydro-6,6-dimethyl-6H-2-(4-hidroxyphenyl)-pyran[b-4,3]naphth[1,2-d]imidazole] | 23 | >15.76 | 31.9 | >11.38 | 8.71 | >41.70 | > 363 |  |  |  |  |  |  |
|  | 1.35 10^4 M^−1cm^−1 | 337 | 48 |  | 385 | 139 to 141 | CC1(C)CCc2c(c3ccccc3c3nc(-c4ccccc4[N+](=O)[O-])[nH]c23)O1 [IM7, 4,5-dihydro-6,6-dimethyl-6H-2-(2-nitrophenyl)-pyran[b-4,3]naphth[1,2-d]imidazole] | 35.1 |  | > 67 |  | 14.9 |  |  |  |  |  |  |  |  |
| 15700 | 1.57 10^4 M^−1cm^−1 | 354 | 103 | 1.41 × 10^6 au | 457 |  | CC1(C)CCc2c(c3ccccc3c3nc(-c4cccc5ccccc45)[nH]c23)O1 [IM3, 4,5-dihydro-6,6-dimethyl-6H-2-(naphthalenyl)-pyran[b-4,3]naphth[1,2-d]imidazole] |  |  |  |  |  |  |  |  | low growth inhibition; also recorded: low cytotoxicity | low growth inhibition; also recorded: low cytotoxicity | low growth inhibition; also recorded: low cytotoxicity |  |  |
| 24300 | 2.43 10^4 M^−1cm^−1 | 342 | 60 | 2.49 × 10^6 au | 402 | 278 to 279 | CC1(C)CCc2c(c3ccccc3c3nc(-c4ccccc4)[nH]c23)O1 [IM2, 4,5-dihydro-6,6-dimethyl-6H-2-(phenyl)-pyran[b-4,3]naphth[1,2-d]imidazole] | 21.7 | 4.83 | 27 | 3.89 | 29.9 | 3.50 | 105 |  |  |  |  |  |  |
|  | 1.85 10^4 M^−1cm^−1 | 411 |  |  | 391 | 259 to 260 | CC1(C)CCc2c(c3ccccc3c3nc(-c4ccc([N+](=O)[O-])cc4)[nH]c23)O1 [IM6, 4,5-dihydro-6,6-dimethyl-6H-2-(4-nitrophenyl)-pyran[b-4,3]naphth[1,2-d]imidazole] | 21.1 | 7.18 | 22.3 | 6.81 | 13.7 | 11.09 | 152 |  |  |  |  |  |  |
|  | 0.61 10^4 M^−1cm^−1 | 316 | 50 | 6.90 × 10^4 au | 366 | 255 to 259 | CC1(C)CCc2c(c3ccccc3c3nc[nH]c23)O1 [IM1, 4,5-dihydro-6,6-dimethyl-6H-2-pyran[b-4,3]naphth[1,2-d]imidazole] | 62.1 | 3.00 | 46.4 | 4.00 | 24.2 | 7.68 | 186 |  |  |  |  |  |  |
| 27100 | 2.71 10^4 M^−1cm^−1 | 368 | 54 | 7.04 × 10^5 au | 422 | 182 to 184 | CN(C)c1ccc(-c2nc3c([nH]2)c2c(c4ccccc43)OC(C)(C)CC2)cc1 [IM5, 4,5-dihydro-6,6-dimethyl-6H-2-(4-dimethylaminophenyl)-pyran[b-4,3]naphth[1,2-d]imidazole] | 44.1 | 1.20 | 21.1 | 2.51 | 12.3 | 4.28 | 52.8 |  |  |  |  |  |  |
